The text below walks through data of patent US6987004B1, “Genes integrating signal transduction pathways” (Massachusetts Institute of Technology, priority 1998, dated 2006).

For one data set, the target named is T1, cAMP-GEFI (Rattus norvegicus, UniProt Q9Z1C8).
T1 sequence (Q9Z1C8 43-926 limits assumed): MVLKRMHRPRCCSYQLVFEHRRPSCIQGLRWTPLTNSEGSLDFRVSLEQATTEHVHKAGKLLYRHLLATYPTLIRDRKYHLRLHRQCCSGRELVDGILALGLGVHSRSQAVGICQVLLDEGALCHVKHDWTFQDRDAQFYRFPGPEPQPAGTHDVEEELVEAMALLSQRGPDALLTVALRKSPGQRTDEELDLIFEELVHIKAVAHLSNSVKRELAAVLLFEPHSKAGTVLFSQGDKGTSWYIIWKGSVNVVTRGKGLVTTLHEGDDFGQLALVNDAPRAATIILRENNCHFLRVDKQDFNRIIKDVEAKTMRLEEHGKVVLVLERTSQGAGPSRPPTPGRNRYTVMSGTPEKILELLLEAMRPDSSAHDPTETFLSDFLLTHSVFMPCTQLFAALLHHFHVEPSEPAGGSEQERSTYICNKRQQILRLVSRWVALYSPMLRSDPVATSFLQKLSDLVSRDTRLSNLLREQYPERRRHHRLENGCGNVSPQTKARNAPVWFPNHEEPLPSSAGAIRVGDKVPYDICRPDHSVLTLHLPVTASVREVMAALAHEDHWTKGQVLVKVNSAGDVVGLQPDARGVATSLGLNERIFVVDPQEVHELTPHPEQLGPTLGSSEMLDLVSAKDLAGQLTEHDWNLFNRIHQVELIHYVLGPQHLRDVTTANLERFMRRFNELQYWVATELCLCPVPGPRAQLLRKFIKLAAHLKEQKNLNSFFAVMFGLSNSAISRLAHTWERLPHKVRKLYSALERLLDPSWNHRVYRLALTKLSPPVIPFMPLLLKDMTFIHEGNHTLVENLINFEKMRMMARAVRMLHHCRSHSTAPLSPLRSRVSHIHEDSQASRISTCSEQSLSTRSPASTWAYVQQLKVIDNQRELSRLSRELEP
Briefly: cAMP agarose affinity bead binding assay. The note with it: excess amounts of competitor; in vitro translated cAMP-GEFI.

Another data set has as its target T2, CalDAG-GEFI (Mus musculus, UniProt Q9QUG9).
T2 construct: expressed in transfected cells; host or cells: 293T cells
T2 sequence (Q9QUG9 with tags, fused parts or gaps M73V/I83V/Q99P/R233K/C339S/E542D/S598T limits assumed): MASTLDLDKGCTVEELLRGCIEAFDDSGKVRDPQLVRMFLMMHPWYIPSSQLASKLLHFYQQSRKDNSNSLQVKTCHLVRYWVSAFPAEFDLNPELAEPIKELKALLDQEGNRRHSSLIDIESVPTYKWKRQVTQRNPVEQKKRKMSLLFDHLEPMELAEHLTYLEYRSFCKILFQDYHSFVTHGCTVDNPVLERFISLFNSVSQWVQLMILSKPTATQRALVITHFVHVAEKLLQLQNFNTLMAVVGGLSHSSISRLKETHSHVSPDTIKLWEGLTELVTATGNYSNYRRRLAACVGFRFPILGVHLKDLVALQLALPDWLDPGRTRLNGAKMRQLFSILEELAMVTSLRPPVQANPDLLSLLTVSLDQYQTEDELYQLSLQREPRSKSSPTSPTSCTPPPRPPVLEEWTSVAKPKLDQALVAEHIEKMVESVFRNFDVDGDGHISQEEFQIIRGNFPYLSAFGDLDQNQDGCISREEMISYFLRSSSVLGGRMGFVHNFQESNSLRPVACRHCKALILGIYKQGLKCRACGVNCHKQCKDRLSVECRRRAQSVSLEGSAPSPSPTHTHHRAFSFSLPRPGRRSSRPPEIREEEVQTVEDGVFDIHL
Briefly: Guanine nucleotide exchange activity in intact 293T cells cotransfected with mouse CalDAG-GEFI and GST-tagged Rap1A. To be noted: 10 μM A23187 or 1 μM TPA for 3 min. Type of data set: cell-based. How it is done: (§1) To determine the small G protein target of CalDAG-GEFI, guanine nucleotide exchange activity in vivo was analyzed using intact 293T cells cotransfected with a eukaryotic expression construct of mouse CalDAG-GEFI and GST-tagged Ras family proteins. Full-length mouse CalDAG-GEFI cDNA inserted into a pCMV-SPORT expression vector with a carboxy-terminal FLAG epitope was used for transfection. A PCR-amplified fragment of rat CalDAG-GEFII was subcloned into a pCAGGS expression vector with the addition of His6-tag at its amino-terminus, resulting in pCAGGS-His-CalDAGII. pEBG-Krev1 that expresses Rap1A was used as a fusion protein to glutathione S-transferase (GST) in mammalian cells, as described in Gotoh et al., 15 Mol. Cell Biol. 6746–53 (1995), pEBG-R-Ras, other vectors for Ras-family proteins obtained by inserting PCR-amplified cDNAs into pEBG expression vector, pCAGGS-C3G and pCAGGS-MSos1, and pCEV-H-RasVl2.
To determine the effect of CalDAG-GEFI on the Erk/MAP kinase cascade, Elk1 activation was measured in 293T cells transfected with CalDAG-GEFI or constitutively active H-Ras (RasV12), or both. […] 293T cells were transfected with pFR-Luc and pFA-Elk1 with various expression vectors, and light output was detected and analyzed by the use of LAS1000 film.

Another data set concerns the target T3, CalDAG-GEFII (Rattus norvegicus, UniProt Q9R1K8).
T3 construct: expressed in transfected cells; host or cells: 293T cells
T3 sequence (Q9R1K8 1-795): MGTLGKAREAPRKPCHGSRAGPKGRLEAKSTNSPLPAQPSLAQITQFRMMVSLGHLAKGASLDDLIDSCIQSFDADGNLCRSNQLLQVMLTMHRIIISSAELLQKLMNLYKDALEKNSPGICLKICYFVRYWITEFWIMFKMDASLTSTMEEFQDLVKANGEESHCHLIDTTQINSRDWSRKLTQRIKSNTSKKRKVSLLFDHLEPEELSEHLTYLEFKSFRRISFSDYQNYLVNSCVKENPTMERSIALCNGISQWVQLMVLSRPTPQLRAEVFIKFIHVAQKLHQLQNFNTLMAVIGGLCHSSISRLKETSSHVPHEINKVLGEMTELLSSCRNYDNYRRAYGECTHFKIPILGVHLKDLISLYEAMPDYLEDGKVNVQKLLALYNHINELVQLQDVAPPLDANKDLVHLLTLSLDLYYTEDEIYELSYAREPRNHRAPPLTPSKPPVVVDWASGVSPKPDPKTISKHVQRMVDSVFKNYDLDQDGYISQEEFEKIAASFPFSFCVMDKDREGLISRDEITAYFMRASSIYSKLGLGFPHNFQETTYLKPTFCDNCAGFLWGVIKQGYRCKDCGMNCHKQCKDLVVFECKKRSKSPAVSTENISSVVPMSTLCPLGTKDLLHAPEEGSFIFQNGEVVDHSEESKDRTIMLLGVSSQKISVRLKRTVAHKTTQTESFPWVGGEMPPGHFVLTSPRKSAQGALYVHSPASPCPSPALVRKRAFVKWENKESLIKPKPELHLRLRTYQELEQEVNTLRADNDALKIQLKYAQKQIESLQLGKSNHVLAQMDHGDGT
Briefly: Guanine nucleotide exchange activity in 293T cells transfected with CalDAG-GEFII (H-Ras activation). Type of data set: cell-based. As to the method:
as §1
To determine the effect of CalDAG-GEFI on the Erk/MAP kinase cascade, Elk1 activation was measured in 293T cells transfected with CalDAG-GEFI or constitutively active H-Ras (RasV12), or both. […] 293T cells were transfected with pFR-Luc and pFA-Elk1 with various expression vectors, and light output was detected and analyzed by the use of LAS1000 film. […]

The target of data set [1] is Rap1A as a fusion protein to glutathione S-transferase (pEBG-Krev1) (UniProt P62834).
A further data set has as its system Elk1. Briefly: Elk1 activation in 293T cells (PathDetect Elk1 transreporting system). Type of data set: cell-based. To be noted: for Activation of Elk1 by the GEF itself: 293T cells transfected with the GEF. As to the method: To determine the effect of CalDAG-GEFI on the Erk/MAP kinase cascade, Elk1 activation was measured in 293T cells transfected with CalDAG-GEFI or constitutively active H-Ras (RasV12), or both. 293T cells were transfected by SuperFect (Qiagen) as described in Gotoh, supra, with expression vectors for GST-tagged Ras family proteins and with those for various GEFs. Cells were labeled 24 hours after transfection with ^32Pi for 2 hr. In some experiments, cells were stimulated with either 10 μM A23187 or 1 μM phorbol-12-myristate-13-acetate (TPA) for 3 min. GST-tagged Ras family proteins were collected from cell lysates with glutathione Sepharose. Guanine nucleotides bound to Ras family proteins were separated by thin layer chromatography (TLC). Activation of Elk1 was examined by the PathDetect Elk1 transreporting system (Stratagene). 293T cells were transfected with pFR-Luc and pFA-Elk1 with various expression vectors, and light output was detected and analyzed by the use of LAS1000 film.

Sequence of Rap1A as a fusion protein to glutathione S-transferase (pEBG-Krev1) (P62834 whole entry, the tested form may be a part): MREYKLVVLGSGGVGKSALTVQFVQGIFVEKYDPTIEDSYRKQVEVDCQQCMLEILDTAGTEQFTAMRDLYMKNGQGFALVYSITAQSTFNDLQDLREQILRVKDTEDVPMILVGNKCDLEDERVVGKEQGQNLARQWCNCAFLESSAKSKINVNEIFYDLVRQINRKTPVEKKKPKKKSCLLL

As to `Nc1ncnc2c1nc(Br)n2[C@@H]1O[C@@H]2COP(=O)(O)O[C@H]2[C@H]1O` [8-Br-cAMP], the “Competition of radiolabeled cAMP-GEFI binding to cAMP agarose beads” value at cAMP-GEFI is on record as “competed”.
As for `CCCCCCCCCCCCCC(=O)O[C@@H]1[C@@H](C)[C@@]2(O)[C@@H](C=C(CO)C[C@]3(O)C(=O)C(C)=C[C@@H]23)[C@@H]2C(C)(C)[C@]12OC(C)=O` [TPA, phorbol-12-myristate-13-acetate], the “Effect on CalDAG-GEFI-induced increase in GTP-bound Rap1A” value at CalDAG-GEFI is “augmented”. Moreover, the “Effect on CalDAG-GEFII H-Ras activation” value at CalDAG-GEFII is “enhanced”.
As for `CNc1ccc2oc(C[C@H]3O[C@@]4(CC[C@H]3C)O[C@H]([C@H](C)C(=O)c3ccc[nH]3)[C@H](C)C[C@H]4C)nc2c1C(=O)O` [A23187], at CalDAG-GEFI, the “Effect on CalDAG-GEFI-induced increase in GTP-bound Rap1A” value was “augmented”. Further, on CalDAG-GEFII, the “Effect on CalDAG-GEFII H-Ras activation” value is given as “enhanced”.
Take cAMP-GEFI (wild type): the “time-course of the activation of Rap1A by forskolin/IBMX in cAMP-GEFI transfectants” value in data set [1] is “the activation began within 10 sec, reached a maximum at 5 min, and continued for at least 60 min”.

B1: CalDAG-GEFII: guanine nucleotide exchange factor activating H-Ras and R-Ras; rat cDNA expressed in 293T cells (protein)
chain: T3 sequence (Q9R1K8 1-795)
modifications: left off: small tags and cut ends
notes: rat cDNA expressed in 293T cells
On to B1, for which the “Activation of Elk1 by the GEF itself” value with Elk1 is recorded as “increased the transcriptional activity of Elk1”.

B2: CalDAG-GEFI: guanine nucleotide exchange factor with Ca2+ and DAG binding domains, substrate Rap1A; mouse cDNA expressed in 293T cells (protein)
chain: T2 sequence (Q9QUG9 with tags, fused parts or gaps M73V/I83V/Q99P/R233K/C339S/E542D/S598T limits assumed)
In the case of B2, the “Reduction of RasV12 activation of Elk1” value in the data set on Elk1 (293T cells cotransfected with constitutively active H-Ras (RasV12)) is given as “approximately 4 fold”. Further, in the data set with Elk1, the “Activation of Elk1 by the GEF itself” value is “did not itself activate Elk1”.
